Target: Human TRPV4 (Homo sapiens, UniProt Q9HBA0)
Assay: TRPV4 calcium flux assay (FLIPR, antagonist mode)
Assay type: cell-based
Design: HiBiT (inferred from the expression read-out); host or cells: HEK293T
Conditions: HEK293T cells transfected with hTRPV4; antagonist mode vs EC80 of TRPV4 agonist; average of at least 3 separate experiments; read-out: Human TRPV4 Ca2+ Assay IC50
Protocol: Example 23. TRPV4 Calcium Assay Methods
Human embryonic kidney 293T (HEK293T/293T) cells are cultured in complete media (Dulbecco's Modified Eagle Medium (DMEM), containing 10% fetal bovine serum (FBS) and 1× penicillin-streptomycin) in a T-75 tissue culture flask. At 90% confluency, cells are detached using TrypLE™ Express cell dissociation buffer. TrypLE™ Express buffer is neutralized by adding culture media in excess. Cells are gently triturated and counted using trypan blue in a Countess 3 automated cell counter. Cells are transferred to a 50 mL conical tube and spun down at 1000 rotations per minute (RPM) for five minutes in a benchtop centrifuge. Media containing detaching enzyme is aspirated off the pellet, followed by resuspension to the desired concentration of 2×10^6 cells per mL in complete DMEM.
Transfection preparations were scaled using a combination of 6 μg of TRPV4 wild-type or mutant plasmid DNA, 36 μL of Fugene6 transfection reagent, and 1000 μL of OptiMEM media for every 2×10^6 cells needed. The transfection mix is left to incubate for 20 minutes at room temperature. Total seeding mixture (1000 μL 2×10^6 cells, 1000 μL transfection mix previously described, and 1000 μL complete DMEM) for one transfection is combined into a 15 mL conical tube. The cells and transfection plasmid are mixed thoroughly and dispensed into a reservoir. This is plated at 25 μL per well in a black 384, black-well, clear-bottom, tissue-culture treated plate. This yields approximately 16,000 cells per well. Plasmid DNA constructs were designed by Actio Biosciences in conjunction with Genscript, and generated by Genscript, for all hTRPV4 wild-type and hTRPV4 P/LP (ClinVar) mutations (G78W, P82S, T891, P97R, R186Q, R232C, R232P, R237G, R237Q, R237 L, R269C, R269H, R269S, G270V, R271P, F273 L, K276E, E278K, G280S, Y281S, R315G, R315W, R316C, R316H, R316 L, R316S, I331F, D333G, S403T, K403T, K407E, S542P, S542Y, L543R, Y591N, R594C, R594H, R594S, G600E, Y602C, R616Q, F617 L, L618P, V6201, A716S, A716T, L735R, T740I, R775K, W785R, E797D, E797K, P799A, P799R, P799S, P799 L, G800D, K801E, P827H, F471del, N797del). The remaining cells are plated in the same manner, in a 384, white-well, clear-bottom, tissue-culture treated plate for expression and relative cell number determination. Plates are placed in the incubator at 37° C. overnight.
Compounds were brought to 10 mM in DMSO. DMSO concentration was kept constant throughout the dilution of any compound. DMSO negative control and concentration-response curves were nanoliter-spotted via PICO8 automated dispenser at 5× test concentration into a 384w clear polypropylene plate containing 1×HBSS+20 mM HEPES buffer. A predetermined concentration equivalent to the EC80 of TRPV4 agonist on hTRPV4 was prepared at 6× in 1×HBSS+20 mM HEPES and loaded into a separate 384-well v-bottom polypropylene plate.
Approximately 18 hours post-transfection, the cell plates were removed from the incubator and equal volume (25 uL) Calcium 6 dye was gently added. Calcium 6 dye containing probenecid (final 5 mM) was prepared per manufacturer's instructions. Cell plate was returned to the incubator for 1 hour, at 37° C.
FLIPR Penta was programmed to add compound using the following settings • Pipettor Head=384 • Read Mode 1 Excitation Wavelength=470_495 • Read Mode 1 Emission Wavelength=515_575 • Read Mode 1 Exposure=0.1000 • Read Mode 1 Gain=6.50 • Read Mode 1 Excitation Intensity=20 • Volume of addition=12.5 μL • Height=40 μL • Speed=15 μL/second
Raw data was exported and analyzed for maximum signal (RFU) after agonist addition—the average baseline (RFU) in the first 15 seconds per well. Data was plotted in GraphPad Prism to determine EC50 or IC50 of the molecules.

Chain of Human TRPV4 (Q9HBA0 whole entry): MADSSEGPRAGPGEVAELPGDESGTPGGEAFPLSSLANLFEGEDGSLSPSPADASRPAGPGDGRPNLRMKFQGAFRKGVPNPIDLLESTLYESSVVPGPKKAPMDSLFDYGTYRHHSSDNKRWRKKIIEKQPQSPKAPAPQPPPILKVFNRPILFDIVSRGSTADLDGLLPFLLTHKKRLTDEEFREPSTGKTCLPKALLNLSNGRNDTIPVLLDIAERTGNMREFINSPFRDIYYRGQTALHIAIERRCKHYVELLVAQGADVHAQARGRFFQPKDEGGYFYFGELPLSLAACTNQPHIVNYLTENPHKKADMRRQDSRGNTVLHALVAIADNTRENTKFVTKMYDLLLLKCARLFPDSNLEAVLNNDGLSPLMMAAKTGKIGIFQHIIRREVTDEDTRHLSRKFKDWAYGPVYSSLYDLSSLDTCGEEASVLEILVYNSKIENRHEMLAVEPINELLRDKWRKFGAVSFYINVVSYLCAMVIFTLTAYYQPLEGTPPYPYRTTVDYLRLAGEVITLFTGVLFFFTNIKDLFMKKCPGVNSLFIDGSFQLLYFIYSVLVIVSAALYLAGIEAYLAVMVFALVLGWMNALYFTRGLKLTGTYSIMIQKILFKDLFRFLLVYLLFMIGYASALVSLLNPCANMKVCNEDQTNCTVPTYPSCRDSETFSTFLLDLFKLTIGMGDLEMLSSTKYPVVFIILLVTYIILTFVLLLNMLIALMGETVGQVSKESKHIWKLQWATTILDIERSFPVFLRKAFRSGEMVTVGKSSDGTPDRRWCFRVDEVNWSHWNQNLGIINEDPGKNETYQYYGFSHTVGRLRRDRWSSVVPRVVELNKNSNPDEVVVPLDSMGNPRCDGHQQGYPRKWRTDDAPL

SMILES: CC(C)(O)c1cnc(N2C[C@@]3(CC[C@@H](F)[C@](C)(Cn4cnc5ccc(C#N)cc54)C3)OC2=O)cn1 (single isomer, unassigned) [Example 5]
- IC50: 0.013 µM

— patent US12391683B2, “Therapeutic compounds and methods” (Actio Biosciences, Inc., priority 2022, dated 2025)
